According to US20250114324A1, “ANTIMICROBIAL MATERIALS AND NANOPARTICLES AND METHODS OF USE THEREOF” (Arizona Board of Regents on behalf of Arizona State …, priority 2022, published 2025):
Like-named read-outs stand apart in the source and are kept apart here.

Tests used:
[1] = Stability of nano-encapsulated and native EGCG in 1×PBS at pH 7.4; format: physicochemical; conditions: neutral pH (7.4)
Description: Three independent experiments were conducted at each time point.
The degradation rate of EGCG in NLCs and CSNLCs were much slower.
(§1) The chemical stability is measured by detecting remaining phytochemicals' concentrations at different time points using the HPLC system. The release profile is measured using a dialysis method. Briefly, native phytochemicals and NCs are each put into dialysis bags with Molecular Weight Cut Off (MWCO) 6,000-8,000. The dialysis bags are dipped into the dissolution medium composed of 1×PBS and methanol (9:1, v:v). The dissolution medium is stirred at 200 rpm at 4° C. and 22° C. The dissolution medium is changed completely every 2 hours for the first 24 hours, and every 6 hours for the rest 30 days. The amounts of phytochemicals in the release medium are measured using the above HPLC methods.

[2] = after drinking 2 cups of green tea; cited from earlier work
[3] = after drinking tea containing catechins at 10 mg/kg body weight; cited from earlier work
[4] = Pharmacokinetics and bioavailability of Q after oral administration to rats; conditions: male, Sprague-Dawley, rat, 50 mg/kg
Description: Male Sprague-Dawley rats (n=3 per group) weighing 200-250 g were purchased pre-cannulated from Harlan Laboratories (Indianapolis, IN). The rounded tips catheters were surgically implanted into the jugular vein of the rats with the benefits of multiple blood draw. […] Blood was collected via the catheters at hour 0, 1, 2, 3, 4, 6, 8, 10, 14, 24, 36, and 48 into heparinized tubes. Blood Q concentrations were measured using a HPLC system (FIG. 5). Pharmacokinetic parameters were determined on each individual set of data by using a non-compartmental model (Song I, Eur J Clin Pharmacol. 2016; 72:665-670). […] The relative bioavailability Fr at infinity was calculated as Fr=AUCQ-NLC, […]/AUCQ, 0→∞. The half-life (t1/2)=0.693/k. The mean residence time (MRT)=1/k.
Male Sprague-Dawley rats (n=3 per group) weighing 200-250 g and the rounded tips catheters were surgically implanted into the jugular vein of the rats with the benefits of multiple blood draw. […] Blood was collected via the catheters at hour 0, 1, 2, 3, 4, 6, 8, 10, 14, 24, 36, and 48 into heparinized tubes. Blood Q concentrations were measured using an HPLC system (FIG. 21). Pharmacokinetic parameters were determined on each individual set of data by using a non-compartmental model. […] The area under the plasma concentration time curve from time zero to infinity (AUC0→∞) was calculated as AUC0→24 h+Ct/Ke, where Ct was the Q concentration observed at the […] time, and Ke is the apparent elimination rate constant obtained from the terminal slope of the individual plasma concentration-time curves after logarithmic transformation of the plasma concentration values and application of linear regression. The relative bioavailability Fr at infinity was calculated as Fr=AUCQ-NP, 0→∞/AUCQ, 0→∞. The half-life (t1/2)=0.693/k. The mean residence time (MRT)=1/k.

[5] = room temperature; cited from earlier work
[6] = tested on: L. monocytogenes ATCC 15313; experiment: Antibacterial activity (absorbance at 595 nm), Example 3; format: cell-based, Listeria monocytogenes; conditions: 300 μg/mL R or Q; free RQ 240 μg/mL (FIG. 19C)
Text: (§2) The antibacterial activity of all NPs and their controls against Salmonella enterica subsp. enterica (S. enterica ATCC 13076), Listeria monocytogenes (L. monocytogenes ATCC 15313), E coli (ATCC 43895) and Staphylococcus aureus subsp. aureus (S. aureus ATCC 25923) were investigated.

[7] = In vitro release profile (dialysis method); format: physicochemical; conditions: for release profile: 37° C. (FIG. 17C)
Description: as §1
Using R-NPs as an example, the NPs were stable at both 4° C. and 22° C. (FIG. 17A). Nanoencapsulation increased R's stability (FIG. 17B). Similarly, Q and RQ were also stable at 4° C. and 22° C. after encapsulation. A dialysis method was used to measure R and Q release profiles from NPs at 37° C. […] The release profiles of NPs were even slower at 4° C. and 22° C.

[8] = tested on: E coli (ATCC 43895); experiment: Antibacterial activity (absorbance at 595 nm), Example 3; format: cell-based; conditions: 300 μg/mL R or Q; free RQ 240 μg/mL (FIG. 19B)
Text: as §2

[9] = cited from earlier work
[10] = tested on: S. enteritidis (13076), L. monocytogenes (15313), E. coli (48953) and S. aureus (25923); experiment: Anti-bacterial assay, Example 2, result stated for the four strains together; format: cell-based; parameters: anti-bacterial effects: dose or concentration left out as unconfirmed
Description: The concentrations of R and Q in the NPs were characterized by HPLC. Three parallel experiments were performed for each sample, the absorbance of bacteria solution treated with different samples was measured by a microplate reader at a wavelength of 600 nm. S. enteritidis (13076), L. monocytogenes (15313), E. coli (48953) and S. aureus (25923) were used in this study and treated with R-NPs, Q-NPs, RQ-NPs, and CS-coated R-NPs, Q-NPs, and RQ-NPs, respectively. Different concentrations of R-NPs and Q-NPs were investigated. Initially, 50 μg/mL R and R-NPs were used. […] S. enteritidis, L. monocytogenes, E. coli and S. aureus were cultured in broth media under constant shaking at 100 rpm at 37° C. to reach the mid exponential growth phase. The number of bacteria was determined by counting the CFU formed on the agar plate. Bacterial suspensions were diluted to approximately 1×10^4-5 CFU/mL in broth media. The NPs solution (20 μL) was mixed with 180 μL of bacterial suspension in a 96-well plate, and the experiments were performed in triplicates. […]

[11] = tested on: L. monocytogenes (15313); experiment: Anti-bacterial assay (OD 600 nm, CFU), Example 2; format: cell-based; conditions: 100 μg/mL, 24 h of incubation
Description: (§3) The concentrations of R and Q in the NPs were characterized by HPLC. Three parallel experiments were performed for each sample, the absorbance of bacteria solution treated with different samples was measured by a microplate reader at a wavelength of 600 nm. S. enteritidis (13076), L. monocytogenes (15313), E. coli (48953) and S. aureus (25923) were used in this study and treated with R-NPs, Q-NPs, RQ-NPs, and CS-coated R-NPs, Q-NPs, and RQ-NPs, respectively. Different concentrations of R-NPs and Q-NPs were investigated. Initially, 50 μg/mL R and R-NPs were used. […] S. enteritidis, L. monocytogenes, E. coli and S. aureus were cultured in broth media under constant shaking at 100 rpm at 37° C. to reach the mid exponential growth phase. The number of bacteria was determined by counting the CFU formed on the agar plate. Bacterial suspensions were diluted to approximately 1×10^4-5 CFU/mL in broth media. The NPs solution (20 μL) was mixed with 180 μL of bacterial suspension in a 96-well plate, and the experiments were performed in triplicates. The plates were incubated at 37° C. under constant shaking at 100 rpm overnight, and the optical density (OD) at 600 nm was measured on a plate reader.

[12] = tested on: S. aureus (25923); experiment: Anti-bacterial assay (OD 600 nm, CFU), Example 2; format: cell-based; conditions: 100 μg/mL, 24 h of incubation
Description: as §3

[13] = tested on: S. enteritidis (13076); experiment: Anti-bacterial assay (OD 600 nm, CFU), Example 2; format: cell-based; conditions: 100 μg/mL, 24 h of incubation
Description: as §3

[14] = tested on: E. coli (48953); experiment: Anti-bacterial assay (OD 600 nm, CFU), Example 2; format: cell-based; conditions: 100 μg/mL, 24 h of incubation
Description: as §3

[15] = pH>7; cited from earlier work

O=C(O[C@@H]1Cc2c(O)cc(O)cc2O[C@@H]1c1cc(O)c(O)c(O)c1)c1cc(O)c(O)c(O)c1 [EGCG, Epigallocatechin Gallate]
time to complete degradation ([1]; 4° C.): 24 h
time to complete degradation ([1]; 25° C.): 6 h
time to complete degradation ([1]; 37° C.): 3 h
peak plasma EGCG concentration [2]: 0.15 UM
absolute oral bioavailability [3]: about 0.1%

O=c1c(O)c(-c2ccc(O)c(O)c2)oc2cc(O)cc(O)c12 [Q]
half-life ([4]; in vivo): 16.7 ± 10.5 h
Cmax ([4]; po): 964 ± 536 ng/mL
Ke ([4]; po): 0.07 ± 0.06 h⁻¹
MRT ([4]; po): 12.1 ± 15.1 h
Tmax ([4]; po): 2 h
AUC ([4]; po, AUCo→24 h): 14600 ± 6270 ng·h/mL
AUC ([4]; po, AUCo→∞): 15300 ± 6090 ng·h/mL
dissolution of 20 mg in 10 mL of 1×PBS [5]: not able to be dissolved
growth inhibition [6]: inhibited growth
release profile ([7]; dialysis method): burst release
release pattern ([7]; dialysis method, release medium (FIG. 4B)): burst release pattern
growth inhibition [8]: inhibited growth

Oc1ccc(/C=C/c2cc(O)cc(O)c2)cc1 [R, 3,5,4′-tri-hydroxy-trans-stilbene]
aqueous solubility [9]: < 100 µg/mL
growth inhibition [6]: inhibited growth
release behavior ([7]; RES NPs study): burst release
release profile ([7]; dialysis method): burst release
anti-bacterial effects ([10]; 6 h of incubation): significant anti-bacterial effects
anti-bacterial effects of 300 μg/mL compared with 200 μg/mL ([10]; FIG. 9): significant enhanced anti-bacterial effects
growth inhibition [8]: inhibited growth
growth (CFU formation) [11]: still not shown
anti-bacterial effects [12]: showed anti-bacterial effects
growth (CFU formation) [12]: significantly decreased the growth
growth (CFU formation) [13]: still not shown
anti-bacterial effects [14]: showed anti-bacterial effects
growth (CFU formation) [14]: significantly decreased the growth

COc1cc(/C=C/C(=O)CC(=O)/C=C/c2ccc(O)c(OC)c2)ccc1O [curcumin, Curcumin]
solubility in water [9]: less than 0.1 mg/mL
half-life [15]: < 0.167 h
